Assay results taken from patent US20060116390A1, “Hepatitis c virus inhibitors” (priority 2003, published 2006).
Like-named read-outs stand apart in the source and are kept apart here.

System: HCV proteins in Rep5.1 cells (replicon cell line)
Assay: Inhibitory activity of HCV: cell-based ELISA in replicon cell line Rep5.1 (decrease of HCV proteins)
Set-up: species or system hepatitis C virus
Conditions: Rep5.1 cells, 72 hours with drug
In short: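 HCV protein loss was quantified by ELISA on methanol/acetone-fixed cells 72 h after drug addition, probing with selected HCV-positive human plasma, and IC50 was defined as 50% reduction relative to untreated wells. The cells were Rep5.1 replicon cells cultured in DMEM-10 with 500 μg/ml G418, plated at 5000 per well and dosed with serial dilutions after 4 h attachment.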

[1] = Hepatitis C virus, 72 h, concentration at which 50% of HCV proteins was decreased, Table 2, read-out: IC50
[2] = Hepatitis C virus, 72 h, decrease of HCV proteins measured by HCV antibody, Table 1, read-out: Level (IC50 values classified)
[3] = concentration at which 50% of HCV proteins was decreased, Table 2, read-out: IC50

Structure (SMILES) | IC50 [1] [µM] | IC50 [2] [µM] | IC50 [3] [µM]
CC1=C(C(=O)OCc2ccccc2Cl)CNC(=S)N1 [Compound 84, 6-methyl-2-thioxo-1,2,3,4-tetrahydro-pyrimidine-5-carboxylic acid 2-chloro-benzyl ester] | < 0.4 | < 1 | 
CC1=C(C(=O)OCCc2ccc(F)cc2)CNC(=S)N1 [Compound 93, 6-methyl-2-thioxo-1,2,3,4-tetrahydro-pyrimidine-5-carboxylic acid 2-(4-fluoro-phenyl)-ethyl ester] |  |  | 0.7
CC1=C(C(=O)OCCOCCc2ccsc2)C(CO)NC(=S)N1 (stereo not shown) [16″, 4-hydroxymethyl-6-methyl-2-thioxo-1,2,3,4-tetrahydro-pyrimidine-5-carboxylic acid 2-(2-thiophen-3-yl-ethoxy)-ethyl ester] | > 100 | > 20 | 
CC1=C(C(=O)OCc2c(C)cccc2C)CNC(=S)N1 [Compound 184, 6-methyl-2-thioxo-1,2,3,4-tetrahydro-pyrimidine-5-carboxylic acid 2,6-dimethyl-benzyl ester] | 19 | 10 to 20 | 
CCOCC#CCOC(=O)C1=C(C)NC(=S)NC1 [Compound 236, 6-methyl-2-thioxo-1,2,3,4-tetrahydro-pyrimidine-5-carboxylic acid 4-ethoxy-but-2-inyl ester] |  |  | 14
CC1=C(C(=O)OCCc2cccc(C(F)(F)F)c2)C(COC(=O)C(C)N)NC(=S)N1 (stereo not shown) [73″, 4-(2-amino-propionyloxymethyl)-6-methyl-2-thioxo-1,2,3,4-tetrahydro-pyrimidine-5-carboxylic acid 2-(3-trifluoromethyl-phenyl)-ethyl ester] | 0.4 | < 1 | 
C#CCOC(=O)C1=C(C)NC(=S)NC1 [Compound 159, 6-methyl-2-thioxo-1,2,3,4-tetrahydro-pyrimidine-5-carboxylic acid prop-2-inyl ester] |  |  | > 100
CCc1ccc(CCOC(=O)C2=C(C)NC(=S)NC2CO)o1 (stereo not shown) [65″, 4-hydroxymethyl-6-methyl-2-thioxo-1,2,3,4-tetrahydro-pyrimidine-5-carboxylic acid 2-(5-ethyl-furan-2-yl)-ethyl ester] | 1.4 | 1 to 10 | 
CC1=C(C(=O)OCCc2csc([N+](=O)[O-])c2)C(CF)NC(=S)N1 (stereo not shown) [28′, 4-fluoromethyl-6-methyl-2-thioxo-1,2,3,4-tetrahydro-pyrimidine-5-carboxylic acid 2-(5-nitro-thiophen-3-yl)-ethyl ester] | 72 | > 20 | 
CC1=C(C(=O)OCCc2c(F)cccc2Cl)C(CF)NC(=S)N1 (stereo not shown) [87′, 4-fluoromethyl-6-methyl-2-thioxo-1,2,3,4-tetrahydro-pyrimidine-5-carboxylic acid 2-(2-chloro-6-fluoro-phenyl)-ethyl ester] | < 0.4 | < 1 | 
CCOC(=O)OCC1NC(=S)NC(C)=C1C(=O)OCCc1cccc(Cl)c1 (stereo not shown) [49″, 4-ethoxycarbonyloxymethyl-6-methyl-2-thioxo-1,2,3,4-tetrahydro-pyrimidine-5-carboxylic acid 2-(3-chloro-phenyl)-ethyl ester] | 3 | 1 to 10 | 
CC1=C(C(=O)OCCCc2ccccc2)C(CF)NC(=S)N1 (stereo not shown) [31′, 4-fluoromethyl-6-methyl-2-thioxo-1,2,3,4-tetrahydro-pyrimidine-5-carboxylic acid 3-phenyl-propyl ester] | 0.4 | < 1 | 
COCC1NC(=S)NC(C)=C1C(=O)OCCc1ccsc1 (stereo not shown) [2″, 4-methoxymethyl-6-methyl-2-thioxo-1,2,3,4-tetrahydro-pyrimidine-5-carboxylic acid 2-thiophen-3-yl-ethyl ester] | 35 | > 20 | 
CC1=C(C(=O)OCC(F)(F)c2ccsc2)CNC(=S)N1 [71′, 6-methyl-2-thioxo-1,2,3,4-tetrahydro-pyrimidine-5-carboxylic acid 2,2-difluoro-2-thiophen-3-yl-ethyl ester] | 0.6 | < 1 | 
COC1=C(C(=O)OCc2ccccc2)CNC(=S)N1 [Compound 63, 6-methoxy-2-thioxo-1,2,3,4-tetrahydro-pyrimidine-5-carboxylic acid benzyl ester] | > 100 | > 20 | 
CCCCCC(CC)OC(=O)C1=C(C)NC(=S)NC1 (stereo not shown) [Compound 47, 6-methyl-2-thioxo-1,2,3,4-tetrahydro-pyrimidine-5-carboxylic acid 1-ethyl-hexyl ester] | < 0.5 | < 1 | 
CC1=C(C(=O)OCc2cc(C)ccc2C)CNC(=S)N1 [Compound 149, 6-methyl-2-thioxo-1,2,3,4-tetrahydro-pyrimidine-5-carboxylic acid 2,5-dimethyl-benzyl ester] | < 0.4 | < 1 | 
CC1=C(C(=O)OCc2ccc([N+](=O)[O-])cc2)CNC(=S)N1 [Compound 7, 6-methyl-2-thioxo-1,2,3,4-tetrahydro-pyrimidine-5-carboxylic acid 4-nitro-benzyl ester] | 2.5 | 1 to 10 | 

Structure (SMILES) | IC50 [1] [µM] | IC50 [2] [µM] | IC50 [3] [µM]
CC1=C(C(=O)OCCCn2c(=O)sc3ccccc32)C(CF)NC(=S)N1 (stereo not shown) [48′, 4-fluoromethyl-6-methyl-2-thioxo-1,2,3,4-tetrahydro-pyrimidine-5-carboxylic acid 3-(2-oxo-benzothiazol-3-yl)-propyl ester] | 21 | > 20 | 
COC(=O)C1=C(C(=O)OCc2ccccc2)CNC(=S)N1 [Compound 196, 2-thioxo-1,2,3,6-tetrahydro-pyrimidine-4,5-dicarboxylic acid 5-benzyl ester 4-methyl ester] | 43 | > 20 | 
CC1=C(C(=O)OCCc2c(F)cc(F)cc2F)C(CO)NC(=S)N1 (stereo not shown) [53″, 4-hydroxymethyl-6-methyl-2-thioxo-1,2,3,4-tetrahydro-pyrimidine-5-carboxylic acid 2-(2,4,6-trifluoro-phenyl)-ethyl ester] | 7 | 1 to 10 | 
COc1cc(COC(=O)C2=C(C)NC(=S)NC2)cc(OC)c1 [Compound 81, 6-methyl-2-thioxo-1,2,3,4-tetrahydro-pyrimidine-5-carboxylic acid 3,5-dimethoxy-benzyl ester] | 3 | 1 to 10 | 
CC1=C(C(=O)OCc2ccc(F)cc2)CNC(=S)N1 [Compound 61, 6-methyl-2-thioxo-1,2,3,4-tetrahydro-pyrimidine-5-carboxylic acid 4-fluoro-benzyl ester] | 0.8 | < 1 | 
CC1=C(C(=O)OCc2ccccc2)C(CF)NC(=S)N1 (stereo not shown) [Compound 211, 4-fluoromethyl-6-methyl-2-thioxo-1,2,3,4-tetrahydro-pyrimidine-5-carboxylic acid benzyl ester] | 16 | 10 to 20 | 
CC1=C(C(=O)OCCc2cccc([N+](=O)[O-])c2)C(CO)NC(=S)N1 (stereo not shown) [32″, 4-hydroxymethyl-6-methyl-2-thioxo-1,2,3,4-tetrahydro-pyrimidine-5-carboxylic acid 2-(3-nitro-phenyl)-ethyl ester] | 6 | 1 to 10 | 
CCCCCCCCNC(=O)CCCCCOC(=O)C1=C(C)NC(=S)NC1 [19′, 6-methyl-2-thioxo-1,2,3,4-tetrahydro-pyrimidine-5-carboxylic acid 5-octylcarbamoyl-pentyl ester] | > 100 | > 20 | 
CC1=C(C(=O)OCc2ccc(C(C)(C)C)cc2)CNC(=S)N1 [Compound 45, 6-methyl-2-thioxo-1,2,3,4-tetrahydro-pyrimidine-5-carboxylic acid 4-t-butyl-benzyl ester] | < 0.4 | < 1 | 
CC1=C(C(=O)OCC2CC=CCC2)CNC(=S)N1 (stereo not shown) [3′, 6-methyl-2-thioxo-1,2,3,4-tetrahydro-pyrimidine-5-carboxylic acid cyclohex-3-enylmethyl ester] | 0.7 | < 1 | 
C=C(Br)CCOC(=O)C1=C(C)NC(=S)NC1 [Compound 99, 6-methyl-2-thioxo-1,2,3,4-tetrahydro-pyrimidine-5-carboxylic acid 3-bromo-but-3-enyl ester] | 1.8 | 1 to 10 | 
CC1=C(C(=O)OCc2ccc(N(C)C)cc2)CNC(=S)N1 [Compound 79, 6-methyl-2-thioxo-1,2,3,4-tetrahydro-pyrimidine-5-carboxylic acid 4-dimethylamino-benzyl ester] | 1.3 | 1 to 10 | 
COCC1=C(C(=O)OCc2ccccc2)CNC(=S)N1 [Compound 64, 6-methoxymethyl-2-thioxo-1,2,3,4-tetrahydro-pyrimidine-5-carboxylic acid benzyl ester] | 15 | 10 to 20 | 
CC1=C(C(=O)OCCc2ccc(OCc3ccccc3)cc2)C(CO)NC(=S)N1 (stereo not shown) [27″, 4-hydroxymethyl-6-methyl-2-thioxo-1,2,3,4-tetrahydro-pyrimidine-5-carboxylic acid 2-(4-benzyloxy-phenyl)-ethyl ester] | 0.4 | < 1 | 
CC1=C(C(=O)SCCc2ccccc2)C(CF)NC(=S)N1 (stereo not shown) [88′, 4-fluoromethyl-6-methyl-2-thioxo-1,2,3,4-tetrahydro-pyrimidine-5-carbothioic acid S-phenethyl ester] | 0.4 | < 1 | 
CC1=C(C(=O)OCc2cc(C(F)(F)F)cc(C(F)(F)F)c2)CNC(=S)N1 [Compound 148, 6-methyl-2-thioxo-1,2,3,4-tetrahydro-pyrimidine-5-carboxylic acid 3,5-bis-trifluoromethyl-benzyl ester] | < 0.4 | < 1 | 
CC1=C(C(=O)OCCCCCCCCCC(=O)O)CNC(=S)N1 [20′, 6-methyl-2-thioxo-1,2,3,4-tetrahydro-pyrimidine-5-carboxylic acid 9-carboxy-nonyl ester] | 27 | > 20 | 
